Measurements: US20240287463A1, “INDUCIBLE TISSUE CONSTRUCTS AND USES THEREOF” (Massachusetts Institute of Technology, priority 2020, published 2024)

Columns and labels:
[1] = system: primary human hepatocytes; assay: hepatocyte function and toxicity in 3D spheroid-laden hydrogels after fibroblast deletion; assay type: cell-based
Text: Specifically, MPCC were fabricated as described previously (S. R. Khetani and S. N. Bhatia (2005) Nat. Biotechnol 26, 120; S. March et al. (2015) Nat. Protoc. 10, 2007). Briefly, collagen was adsorbed in each well of a 96 well plate (glass bottom), and then patterned using an elastomeric polydimethysiloxane mold and oxygen plasma gas ablation. Human hepatocytes were thawed and seeded (70 k/well) on the collagen islands (500 μm with 1,200 μm center-to-center spacing). Adhered hepatocytes (˜10 k/well) were allowed to spread overnight before fibroblasts were seeded for co-culture (7 k/well). Supernatant was collected from cultures every other day and stored at −20° C. Human albumin was quantified using an enzyme-linked immunosorbent assay using a sheep anti-rat albumin antibody (ELISA) (Bethyl Laboratories) and 3,3′,5,5′-tetramethylbenzidine (TMB, Thermo Fisher). Urea concentration was measured using a colorimetric (diacetylmonoxime) assay with acid and heat (Stanbio Labs). CYP3A4 activity was assessed with the luminogenic P450-GloTM CYP450 assay kit (Promega) for nonlytic assays using cultured cells. Cultures were pre-treated with 2 μM rifampin or 1:1,000 DMSO vehicle control prepared in hepatocyte maintenance media for 72 hours (daily replenishment) where indicated.
Previous work identified that phenotypic stability and longevity of primary hepatocytes cultured as 3D microtissues were transiently supported by pre-aggregation to increase homotypic cell-cell interactions, and were further enhanced upon inclusion of J2 fibroblasts (C. Y. Li et al. (2014) Tissue Eng. Part A 20, 2200). Thus, iCasp9-GFP J2 fibroblasts were incorporated into these 3D hepatic ensembles, which were fabricated by plating primary human hepatocytes and fibroblasts in microwells in order to facilitate physical cell-cell contacts, as previously described (K. Stevens et al. (2013) Nat. Commun. 4, 1847; K. R. Stevens et al. (2017) Sci. Transl. Med. 9, eaaah5505). Specifically, cryopreserved 365 human hepatocytes were thawed and immediately plated with fibroblasts in AggreWells (400 μm pyramidal microwells) and incubated overnight. Hepatic spheroids (about 150 hepatocytes per spheroid, ˜100 μm diameter) were imaged and analyzed to quantify the extent of spheroid compaction. Individual spheroids were isolated manually using Fiji, (J. Schindelin et al. (2012) Nat. Methods 9, 676). […] Resulting morphologies were traced and measured for circularity. […]
To probe the dependence of hepatocyte phenotypic stability on fibroblast co-culture in 3D, fibroblasts were deleted from spheroid-laden hydrogel cultures using CAMEO after 1 day of hepatocyte-fibroblast co-culture. Fibroblasts were robustly removed from 3D co-cultures as described in the above Examples, and detected by immunofluorescence imaging (FIG. 3I). […]

iCasp9-HDFs = assay: apoptosis of 2D monolayer fibroblasts (cellular ATP, cell density); assay type: cell-based, human
Procedure: To be able to remove fibroblasts on demand from the developing co-culture, the synthetically engineered, inducibly activated caspase-9 (iCasp9) outlined in the examples above was used. Using this inducible transgene, iCasp9-HDFs were established and characterized for effectiveness. iCasp9-HDFs were seeded on tissue culture plastic, and allowed to form a confluent monolayer before adding different concentrations of CID.

[2] = system: implanted hepatocyte tissue constructs; assay: human albumin in plasma of mice implanted with hepatocyte/iCasp9-HDF/HUVEC constructs (ELISA); assay type: in vivo; details: 10 mg/kg on days 5 and 6 post-implantation, plasma at day 7
Procedure: Following the confirmation of vessel maintenance and anastomosis and ability to induce death of implanted fibroblasts in vivo, hepatocyte function was evaluated in implanted hepatocyte tissue constructs. Specifically, mice were implanted with hepatocyte/iCasp9-HDF/HUVEC tissue constructs after in vitro culture for 7 days. Constructs were implanted in mouse fat pads as described above, and treated with 10 mg/kg CID or vehicle on days 5 and 6 post-implantation. At day 7, blood was collected and centrifuged to isolate plasma.

Structure (SMILES): CC[C@H](C(=O)N1CCCC[C@H]1C(=O)O[C@H](CCc1ccc(OC)c(OC)c1)c1cccc(OCC(=O)NCC(CNC(=O)COc2cccc([C@@H](CCc3ccc(OC)c(OC)c3)OC(=O)[C@@H]3CCCCN3C(=O)[C@@H](CC)c3cc(OC)c(OC)c(OC)c3)c2)CN(C)C)c1)c1cc(OC)c(OC)c(OC)c1 [CID, AP20187]
- hepatocyte function ([1]; 50 nM CID after 3 or 7 days of co-culture): negatively impacted
- hepatocyte phenotype by albumin secretion rate ([1]; CID after 1 day of co-culture, followed up to 3 weeks): stable phenotype
- hepatocyte function, CID pre- versus post-encapsulation in fibrin ([1]; data not shown): No difference
- toxicity to co-cultured hepatocytes ([1]; spheroid-laden hydrogel cultures, data not shown): without any apparent toxicity
- time within which cellular ATP levels dropped precipitously (iCasp9-HDFs; 5 nM CID): 2 to 4 h
- reduction of iCasp9-HDFs in culture compared to vehicle control (iCasp9-HDFs; 10 nM CID, overnight): ~96%
- rapidity of ATP loss (iCasp9-HDFs; 5, 50, 500 nM CID): increased with increasing CID concentration
- human albumin secretion compared to vehicle control and in vitro CID treated constructs [2]: similar
